Where “and” joins values, the source holds several entries; their conditions need not be identical. Equal values may be shown once. Entries after “also recorded” stand apart in the source; their conditions may differ.

From patent US6635434B1, “Immunoassay for pesticides and their degradation products” (Exiqon A/S, priority 1999, dated 2003) come the findings set out here.

Assay [1] can be described thus: Immunisation of mice with hapten-polymer carrier complex, raising of monoclonal antibodies. The assay is classed as in vivo. The settings on record: hapten coupled to polymer carrier (ovalbumin). As for the experimental part:
Live mice were primed for immunisation by an intraperitoneal injection of live BCG-vaccine one month before immunisation. The antigen (hapten-OA complex), once adsorbed onto Al(OH)3, was injected intraperitonally and test bleeding were collected. When antibody titre's exceeded 1:2000, mice were considered ready for fusion and the method described by Köhler and Milstein (1975) was employed with minor modifications. Monoclonal antibodies were selected on basis of titre, affinity and specificity. Selected clones were recloned until monoclonality and stored frozen at −80° C.
Ten to twelve weeks old female Balb/cxCF1 F1-hybrid mice were used for immunisation. One month before immunisation they were primed with 0.2 mL live BCG-vaccine intraperitonally. The antigen (25×carrier/immunogen) was absorbed onto Al(OH)3 as an adjuvant. The total volume of vaccine per immunisation was 200 μL, containing 25× of antigen and […] of adjuvant. The antigen was injected intraperitonally with 2-weeks intervals. Test bleedings were collected 10 days after immunisation and assayed in ELISA.
When antibody titre's exceeded 1:2000, mice were regarded ready for fusion. The procedure as described by Köhler and Milstein (1975) was employed with minor modifications. Monoclonal antibodies were selected on basis of titre, affinity and specificity. […]

Assay [2] has as its system antibody (HYB 273-1). Kind of assay: Competitive ELISA for BAM on plates covalently (photocoupled) coated with BAM-OA-AQ. The assay is classed as binding, mice. The settings on record: for cross-reactivity (IC50 of BAM divided by IC50 of analyte, times 100): analytes assayed up to 100 mg/L, antibody HYB 273-1. As for the experimental part:
A PolySorp™ microtitre plate was filled by a stationary dispensor with 200 μL/well BAM-OA-AQ (50 ng/mL) in 0.1×PBS. After being exposed to uv-light (300-400 nm) at 34° C. for 30 min, the plate was washed 4 times with de-ionised water and dried 30 min at 37° C. The plate was either used immediately or sealed with tape lid and stored at room temperature in the dark until use.
(§1) Standards (in Milli-Q® water) and samples (150 μL) were added to the hapten-coated plate followed by the addition of 50 μL antibody (HYB 273-1) diluted in 10×PBST (66.7 ng/mL). The plate was incubated for 1 hour. After washing 4 times with PBST, the plate was incubated with 200 μL/well RαM^HRP diluted 1:1000 in PBST. After a final 6 times wash with PBST, 200 μL/well TMB-Plus was added. The colour development was stopped after 10 minutes by adding 50 μL/well 1 M H2SO4 and the absorbance was read at 450 nm.
(§2) The standards were used to generate a semi-log graph based on the 4-parameter-logistic method (Rodbard, 1974: equation 1), followed by calculation of sample values. [formula]
To compare the performances of the two ELISA methods with antigen coated by passive adsorption to that by covalent immobilisation respectively, standard curves were generated with BAM standards ranging from 0.0156 to 2 μg/L on each surface using the identical assay procedures. The data were normalised by the % B/B0 transformation (eq 2). The normalised data were then plotted vs. BAM concentration and the four-parameter-logistic equation (eq 1) was fitted to the experimental points (FIG. 3).
As to detection limits (defined as the analyte concentration giving a 15% decrease in maximum signal: DL15) and sensitivity (defined as the analyte concentration giving a 50% decrease in maximum signal: IC50) the two surface performs almost equally. […] Further development of the BAM assay was therefore based on this technology and the following results are generated on PolySorp™ microtire plates covalently coated with BAM-OA-AQ as described herein in the Preparation of plates section
In general terms: An ELISA detects its analyte on a solid surface through an enzyme-linked reagent.

Assay [3] relates to antibody (HYB 273-1). Kind of assay: Competitive ELISA for BAM on plates coated with BAM-OA by passive adsorption. It is filed as binding, mice. The settings on record: FIG. 3B. As for the experimental part:
i) Passive adsorption: A MaxiSorp™ microtitre plate was filled by a stationary dispensor with 200 μL/well BAM-OA (16.7 ng/mL) in coating buffer. After coating over night at 4° C. the plate was washed 4 times with de-ionised water and dried 30 min at 37° C. The plate was either used immediately or sealed with tape lid and stored at room temperature in the dark until use.
as §1, §2
To compare the performances of the two ELISA methods with antigen coated by passive adsorption to that by covalent immobilisation respectively, standard curves were generated with BAM standards ranging from 0.0156 to 2 μg/L on each surface using the identical assay procedures. The data were normalised by the % B/B0 transformation (eq 2). […]

For `O=C(CCCCCNC(=O)c1c(Cl)cccc1Cl)ON1C(=O)CCC1=O` [EQ-0025, succinimidyl-N-(2,6-dichlorobenzoyl)-6-amino-hexanoate], the “immunoresponse on immunisation with the hapten” value in assay [1] is listed as “able to induce strong immunoresponse”. Consider `N#Cc1c(Cl)cccc1Cl` [dichlorbenil, dichlorobenzonitrile], for which the “cross-reactivity (IC50 of BAM divided by IC50 of analyte, times 100)” value in the assay on antibody (HYB 273-1) [2] is “no measurable cross-reactivity”.

For `NC(=O)c1ccc(Cl)cc1Cl` [2,4-dichlorobenzamide], in the assay with antibody (HYB 273-1) [2], the “cross-reactivity (IC50 of BAM divided by IC50 of analyte, times 100)” value was 3.8%.

Turning to “N-(5-carboxypentyl)-2,4-dichloro-3-amido aniline [EQ-0031]”, the “immunoresponse on immunisation with the hapten” value in assay [1] is “good responses were generated; also recorded: generated good immunoresponse”.

As for `NC(=O)c1c(Cl)cccc1Cl` [BAM, 2,6-dichlorobenzamide], the “DL15 (detection limit, analyte concentration giving a 15% decrease in maximum signal)” value with antibody (HYB 273-1) [3] (passive adsorption) amounted to 0.045 µg/L; in the assay on antibody (HYB 273-1) [2] (photo catalysed covalent immobilisation, FIG. 3A) it was 0.02 µg/L. Further, the “IC50 (analyte concentration giving a 50% decrease in maximum signal)” value in the assay on antibody (HYB 273-1) [3] (passively adsorbed plates (MaxiSorp)) was 0.144 ng/mL and 0.14 ng/mL; in the assay with antibody (HYB 273-1) [2] (covalently immobilised plates (PolySorp, photocoupled), FIG. 3A), 0.189 ng/mL and 0.19 ng/mL.
